Data on four compounds can be found in patent US20170037480A1, “HSF1 IN TUMOR STROMA” (Whitehead Institute for Biomedical Research, priority 2014, published 2017).

The subject of assay [1] is D2A1 cells co-cultured with Hsf1 null MEFs. Briefly: Co-culture of dsRed D2A1 cancer cells on Hsf1 null MEF feeder layer, cancer cells counted by flow cytometry. The assay is classed as cell-based, mouse. Conditions: for cancer cell growth (percentage of cancer cells) in co-culture with Hsf1 null MEFs on addition of recombinant proteins: 10 ng/ml TGFβ1, 100 ng/ml SDF1, added once, 96 h. The protocol:
(§1) (A) The relative expression of Sdf1, Tgfβ1 and Tgfβ2 in WT or Hsf1 null immortalized MEFs was measured by quantitative PCR. mRNA expression levels were normalized to the house keeping gene Gapdh. The mean of 3 independent experiments is shown. Error bars, SEM. *p<0.05, **p<0.01. (B-C) WT or Hsf1 null immortalized MEFs were plated and treated with mitomycin C as in FIG. 3A. D2A1 cells marked with dsRed were then seeded on top of the MEFs in the presence or absence of 10 ng/ml TGFβ1 and 100 ng/ml SDF1. After 96 h, cells were either visualized by fluorescent microscopy (B) or trypsinized and quantitated by flow cytometry (C). The percentage of cancer cells in co-culture is presented. The experiment was repeated 3 times, in triplicate. Representative results of one experiment are shown as the mean+/−SEM. *p<0.05. (D) Immortalized WT or Hsf1 null mitomycin-treated MEFs were pretreated, or not, with LY2109761 for 30 minutes before D2A1 cells marked with dsRed were seeded on top. Cultures were continued for 72 h, with daily supplementation of LY2109761 (or not, as control), and then analyzed as in (C). The experiment was repeated 3 times, in triplicates. Results are expressed as the mean relative number of cancer cells, normalized to the non-drug treated co-cultures with WT MEFs. […] (E) Immortalized WT MEFs stably expressing shRNA hairpins targeting Smad2 (shSmad2) or GFP (shGFP) were co-cultured with D2A1 cells, treated and analyzed as in (C). […] IPs were analyzed by qPCR with primers targeting potential heat shock elements in mouse Sdf1 and Tgfβ2. […]
Figs. S4A-S4F show additional results. […] The relative expression of Sdf1, Tgfβ1 and Tgfβ2 in three separate sets of WT or Hsf1 null MEFs (each derived from a different pregnancy) was measured by quantitative PCR. mRNA expression levels were normalized to the house keeping gene Gapdh. […] After 96 h, cells were trypsinized and quantitated by flow cytometry. […] Relative cell number was measured by luminescence using Cell-Titer Glo reagent (Promega). […] After growth for 96 h, cells were trypsinized and quantitated by flow cytometry. […]

Assay [2] concerns D2A1 cells co-cultured with WT MEFs. Briefly: Co-culture of dsRed D2A1 cancer cells on WT MEF feeder layer, cancer cells counted by flow cytometry. The assay is classed as cell-based, mouse. Conditions: LY2109761, MEFs pretreated 30 minutes, 72 h, daily supplementation; p=0.008. The protocol:
as §1, with “(D) Immortalized WT or Hsf1 null mitomycin-treated MEFs were pretreated, or not, with LY2109761 for 30 minutes before D2A1 cells marked with dsRed were seeded on top.” left out, “The experiment was repeated 3 times, in triplicates.” left out
In general terms: A flow cytometer gives signals particle by particle.

In another assay the test system is D2A1 cancer cells. Briefly: Growth of D2A1 cancer cells grown alone (no MEFs), Cell-Titer Glo luminescence. The format is cell-based, mouse. Conditions: LY2109761 1 μM, 72 h, daily re-addition of inhibitor. The method, then: Figs. S4A-S4F show additional results. (A) Tgfβ and Sdf1 mRNA levels are regulated by HSF1 in primary MEFs. The relative expression of Sdf1, Tgfβ1 and Tgfβ2 in three separate sets of WT or Hsf1 null MEFs (each derived from a different pregnancy) was measured by quantitative PCR. mRNA expression levels were normalized to the house keeping gene Gapdh. The experiment was repeated 3 times (each time with a different set of primary MEFs), in triplicate. Representative results are shown as the mean+/−SEM. *p<0.05, **p<0.01, ***p<0.001. […] WT or Hsf1 null immortalized MEFs were plated and treated with mitomycin C. D2A1 cells marked with dsRed were then seeded on top of the MEFs in the presence or absence of 10 ng/ml TGFβ1, 100 ng/ml SDF1 or a combination of both. After 96 h, cells were trypsinized and quantitated by flow cytometry. The percentage of cancer cells in the co-culture is presented. The experiment was repeated 3 times, in triplicate. […] Relative cell number was measured by luminescence using Cell-Titer Glo reagent (Promega). […] After growth for 96 h, cells were trypsinized and quantitated by flow cytometry. […] Relative levels of SMAD2 in WT immortalized MEFs (left two panels) or D2A1 cells (right two panels) were measured by immunoblotting lysates prepared from cells stably expressing shRNA hairpins targeting Smad2 (shSmad2) or GFP (shGFP). […]

In assay [3] the test system is HSF1. The settings on record: recent chemical screening effort; cited from earlier work.
The test system of assay [4] is HSF1. Put plainly: Effect of RHT on expression of HSF1 stromal signature genes in Hsf1+/+ versus Hsf1-/- MEFs. The format is cell-based, mouse. The settings on record: reduced in treated Hsf1+/+ MEFs but not in Hsf1-/- MEFs. From the text:
A combination of experimental and bioinformatic approaches was used to define a set of HSF1-regulated genes of particular use for assessing the level of HSF1 activity in tumor-associated stromal cells for purposes of cancer classification, diagnosis, prognosis, treatment-specific prediction, and treatment selection. The pipeline started with the Group 1 and Group 4 gene lists described above. As described above, these 871 genes have increased expression in Hsf1+/+ versus Hsf1−/−MEFs. These 871 genes map to 562 genes in the Finak, G. et al. dataset discussed above (GEO (GSE9014)). […] Its structure is depicted below.
The 562 genes that mapped to genes in the Finak dataset were tested to determine the effect of RHT on their expression in Hsf1+/+MEFs versus […] MEFs. […] A filter was applied to these genes to identify those that were differentially expressed in tumors in the Finak dataset with poor versus good outcomes.

Entries after “also recorded” stand apart in the source; their conditions may differ.

As to “SDF1: purified recombinant protein (R&D systems, 460-SD-010)”, the “cancer cell growth (percentage of cancer cells) in co-culture with Hsf1 null MEFs on addition of recombinant proteins” value in assay [1] is given as “Partial effects, that did not reach statistical significance”.
Consider `c1ccc(-c2nn3c(c2-c2ccnc4cc(OCCN5CCOCC5)ccc24)CCC3)nc1` [LY2109761], for which, in assay [2], the “growth of D2A1 cancer cells in co-culture with WT MEFs (relative number of cancer cells)” value is given as “significantly reduce their growth”. Besides, in assay [1] (LY2109761, MEFs pretreated 30 minutes, 72 h, daily supplementation, p=0.1), the “growth of D2A1 cancer cells in co-culture with Hsf1 null MEFs (relative number of cancer cells)” value is “A smaller effect, that did not reach statistical significance”. In addition, in the assay with D2A1 cancer cells, the “growth or survival of D2A1 cancer cells grown alone (relative cell number)” value is recorded as “did not affect; also recorded: does not directly inhibit”.
Turning to `COc1ccc([C@@]23Oc4cc(OC)cc(OC)c4[C@]2(O)[C@H](O)[C@H](C(=O)N(C)OC)[C@H]3c2ccccc2)cc1` [Rohinitib], in the assay with HSF1 [3], the “inhibition of HSF1 activity” value is given as “potent inhibitor”. For the same compound, in the assay with HSF1 [4], the “number of genes (of 562 tested) whose expression was suppressed in an HSF1-dependent fashion” value is 95.
Regarding “TGFβ1: purified recombinant protein (R&D systems, 240-B-002)”, the “cancer cell growth (percentage of cancer cells) in co-culture with Hsf1 null MEFs on addition of recombinant proteins” value in assay [1] is “Partial effects, that did not reach statistical significance”.
